Experimental findings from patent publication US12559529B2, “NPY2 receptor agonists” (Boehringer Ingelheim International GmbH, priority 2019, dated 2026) are described below.

SMILES strings stand for the structures.

In this test the target is T1, Human Neuropeptide Y2 Receptor (Homo sapiens, UniProt P49146).
T1 construct: purchased CHEMICON HTS066M
T1 sequence (P49146 1-381): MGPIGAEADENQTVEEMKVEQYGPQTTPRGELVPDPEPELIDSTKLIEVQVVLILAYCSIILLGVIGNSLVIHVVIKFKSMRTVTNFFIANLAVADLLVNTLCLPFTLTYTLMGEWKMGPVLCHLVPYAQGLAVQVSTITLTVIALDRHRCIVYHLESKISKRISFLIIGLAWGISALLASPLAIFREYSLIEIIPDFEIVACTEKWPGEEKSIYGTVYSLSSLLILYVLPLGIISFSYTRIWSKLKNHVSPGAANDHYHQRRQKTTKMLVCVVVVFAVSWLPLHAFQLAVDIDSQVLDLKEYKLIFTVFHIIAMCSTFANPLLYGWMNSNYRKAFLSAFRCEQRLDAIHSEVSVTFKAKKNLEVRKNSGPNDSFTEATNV
The experiment in a line: Radioligand binding competition assay (RLB). Conditions: Table 3; human 125I-PYY (1-36) 0.02 nM, Y2 receptor membranes; read-out: Ki. The essentials: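 Membranes from cells expressing human Y2 receptor (0.5 μg protein/well) were incubated with radioligand and serially diluted peptides in 50 mM HEPES, 5 mM MgCl2, 1 mM CaCl2, 0.2% ovalbumin, pH 7.4, for 2 h at room temperature with shaking. Bound radioactivity was collected by filtration and counted; IC50 from sigmoidal nonlinear regression.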

In the case of `CC(C)CC(=O)N[C@@H](C)C(=O)N1CCC[C@H]1C(=O)N[C@@H](C)C(=O)N[C@@H](CCCCNC(=O)COCCOCCNC(=O)COCCOCCNC(=O)CC[C@H](NC(=O)CCCCCCCCCCCCCCCCC(=O)O)C(=O)O)C(=O)N1CCC[C@H]1C(=O)N[C@@H](CCC(=O)O)C(=O)N[C@@H](CCC(=O)O)C(=O)N[C@@H](CC(=O)O)C(=O)N[C@@H](C)C(=O)N[C@@H](CO)C(=O)N1CCC[C@H]1C(=O)N[C@@H](C)C(=O)N[C@@H](CCC(=O)O)C(=O)N[C@@H](CC(C)C)C(=O)N[C@@H](CCC(N)=O)C(=O)N[C@@H](CCCNC(=N)N)C(=O)N[C@@H](Cc1ccc(O)cc1)C(=O)N[C@@H](Cc1ccc(O)cc1)C(=O)N[C@H](C(=O)N[C@@H](CO)C(=O)N[C@@H](CC(C)C)C(=O)N[C@@H](CCCNC(=N)N)C(=O)N[C@@H](Cc1c[nH]cn1)C(=O)N[C@@H](Cc1ccc(O)cc1)C(=O)N[C@@H](Cc1ccc(O)cc1)C(=O)N[C@@H](CC(N)=O)C(=O)N[C@@H](Cc1c[nH]c2ccccc12)C(=O)N[C@@H](CC(C)C)C(=O)N[C@H](C(=O)N[C@@H](CCCNC(=N)N)C(=O)N[C@@H](CCC(N)=O)C(=O)N[C@@H](CCCNC(=N)N)C(=O)N[C@@H](Cc1ccc(O)cc1)C(N)=O)[C@@H](C)O)C(C)C` [Compound 179, N{alpha-4}-(3-methylbutanoyl)-N{epsilon-7}-[2-(2-{2-[2-(2-{2-[(4S)-4-carboxy-4-(17-carboxyheptadecanamido)butanamido]ethoxy}ethoxy)acetamido]ethoxy}ethoxy)acetamido]-[4A,6A,7K,9E,15A,18Q,22V,28Y,30W,31L]hPYY (4-36)], the Ki stood at 1 nM.

Regarding `CC(C)CC(=O)N[C@@H](C)C(=O)N1CCC[C@H]1C(=O)N[C@@H](CCC(=O)O)C(=O)N[C@@H](CCCCNC(=O)COCCOCCNC(=O)COCCOCCNC(=O)CC[C@H](NC(=O)CCCCCCCCCCCCCCCCC(=O)O)C(=O)O)C(=O)N1CCC[C@H]1C(=O)N[C@@H](CCC(=O)O)C(=O)N[C@@H](C)C(=O)N[C@@H](CC(=O)O)C(=O)N[C@@H](C)C(=O)N[C@@H](CO)C(=O)N1CCC[C@H]1C(=O)N[C@@H](CCC(=O)O)C(=O)N[C@@H](CCC(=O)O)C(=O)N[C@@H](CC(C)C)C(=O)N[C@@H](CCC(N)=O)C(=O)N[C@@H](CCCNC(=N)N)C(=O)N[C@@H](Cc1ccc(O)cc1)C(=O)N[C@@H](Cc1ccc(O)cc1)C(=O)N[C@H](C(=O)N[C@@H](C)C(=O)N[C@@H](CC(C)C)C(=O)N[C@@H](CCCNC(=N)N)C(=O)N[C@@H](Cc1c[nH]cn1)C(=O)N[C@@H](Cc1ccc(O)cc1)C(=O)N[C@@H](Cc1ccc(O)cc1)C(=O)N[C@@H](CC(N)=O)C(=O)N[C@@H](Cc1c[nH]c2ccccc12)C(=O)N[C@@H](CC(C)C)C(=O)N[C@H](C(=O)N[C@@H](CCCNC(=N)N)C(=O)N[C@@H](CCC(N)=O)C(=O)N[C@@H](CCCNC(=N)N)C(=O)N[C@@H](Cc1ccc(O)cc1)C(N)=O)[C@@H](C)O)C(C)C` [Compound 181, N{alpha-4}-(3-methylbutanoyl)-N{epsilon-7}-[2-(2-{2-[2-(2-{2-[(4S)-4-carboxy-4-(17-carboxyheptadecanamido)butanamido]ethoxy}ethoxy)acetamido]ethoxy}ethoxy)acetamido]-[4A,7K,9E,10A,18Q,22V,23A,28Y,30W,31L]hPYY (4-36)], the Ki is 0.67 nM.

As to `CC(C)CC(=O)N[C@@H](C)C(=O)N1CCC[C@H]1C(=O)N[C@@H](CCC(=O)O)C(=O)N[C@@H](CCCCNC(=O)COCCOCCNC(=O)COCCOCCNC(=O)CC[C@H](NC(=O)CCCCCCCCCCCCCCCCC(=O)O)C(=O)O)C(=O)N1CCC[C@H]1C(=O)N[C@@H](CCC(=O)O)C(=O)N[C@@H](CCC(=O)O)C(=O)N[C@@H](CC(=O)O)C(=O)NCC(=O)N[C@@H](CO)C(=O)N1CCC[C@H]1C(=O)N[C@@H](CCC(=O)O)C(=O)N[C@@H](CCC(=O)O)C(=O)N[C@@H](CC(C)C)C(=O)N[C@@H](CCC(N)=O)C(=O)N[C@@H](CCCNC(=N)N)C(=O)N[C@@H](Cc1ccc(O)cc1)C(=O)N[C@@H](Cc1ccc(O)cc1)C(=O)N[C@H](C(=O)N[C@@H](CCC(=O)O)C(=O)N[C@@H](CC(C)C)C(=O)N[C@@H](CCCNC(=N)N)C(=O)N[C@@H](Cc1c[nH]cn1)C(=O)N[C@@H](Cc1ccc(O)cc1)C(=O)N[C@@H](Cc1ccc(O)cc1)C(=O)N[C@@H](CC(N)=O)C(=O)N[C@@H](Cc1c[nH]c2ccccc12)C(=O)N[C@@H](CC(C)C)C(=O)N[C@H](C(=O)N[C@@H](CCCNC(=N)N)C(=O)N[C@@H](CCC(N)=O)C(=O)N[C@@H](CCCNC(=N)N)C(=O)N[C@@H](Cc1ccc(O)cc1)C(N)=O)[C@@H](C)O)C(C)C` [Compound 182, N{alpha-4}-(3-methylbutanoyl)-N{epsilon-7}-[2-(2-{2-[2-(2-{2-[(4S)-4-carboxy-4-(17-carboxyheptadecanamido)butanamido]ethoxy}ethoxy)acetamido]ethoxy}ethoxy)acetamido]-[4A,7K,9E,12G,18Q,22V,23E,28Y,30W,31L]hPYY (4-36)], the Ki turned out to be 3.45 nM.

For the molecule `CC(C)CC(=O)N[C@@H](C)C(=O)N1CCC[C@H]1C(=O)N[C@@H](CCC(=O)O)C(=O)N[C@@H](CCCCNC(=O)COCCOCCNC(=O)COCCOCCNC(=O)CC[C@H](NC(=O)CCCCCCCCCCCCCCCCC(=O)O)C(=O)O)C(=O)N1CCC[C@H]1C(=O)N1CCC[C@H]1C(=O)N[C@@H](CCC(=O)O)C(=O)N[C@@H](CC(=O)O)C(=O)N[C@@H](C)C(=O)N[C@@H](CO)C(=O)N1CCC[C@H]1C(=O)N[C@@H](CCC(=O)O)C(=O)N[C@@H](CCC(=O)O)C(=O)N[C@@H](CC(C)C)C(=O)N[C@@H](CCC(N)=O)C(=O)N[C@@H](CCCNC(=N)N)C(=O)N[C@@H](Cc1ccc(O)cc1)C(=O)N[C@@H](Cc1ccc(O)cc1)C(=O)N[C@H](C(=O)N[C@@H](CO)C(=O)N[C@@H](CC(C)C)C(=O)N[C@@H](CCCNC(=N)N)C(=O)N[C@@H](Cc1c[nH]cn1)C(=O)N[C@@H](Cc1ccc(O)cc1)C(=O)N[C@@H](Cc1ccc(O)cc1)C(=O)N[C@@H](CC(N)=O)C(=O)N[C@@H](Cc1c[nH]c2ccccc12)C(=O)N[C@@H](CC(C)C)C(=O)N[C@H](C(=O)N[C@@H](CCCNC(=N)N)C(=O)N[C@@H](CCC(N)=O)C(=O)N[C@@H](CCCNC(=N)N)C(=O)N[C@@H](Cc1ccc(O)cc1)C(N)=O)[C@@H](C)O)C(C)C` [Compound 183, N{alpha-4}-(3-methylbutanoyl)-N{epsilon-7}-[2-(2-{2-[2-(2-{2-[(4S)-4-carboxy-4-(17-carboxyheptadecanamido)butanamido]ethoxy}ethoxy)acetamido]ethoxy}ethoxy)acetamido]-[4A,7K,9P,18Q,22V,28Y,30W,31L]hPYY (4-36)], the Ki stood at 0.7 nM.

Usually Ki stands for the equilibrium dissociation constant of an inhibitor or competing ligand from its target.
